Data: patent publication US11814364B2, “Pyridine N-oxide derivatives useful as factor XIa inhibitors” (Janssen Pharmaceutica NV, priority 2021, dated 2023)

Biological target: human plasma kallikrein (Homo sapiens, UniProt P03952)
Test: Kallikrein inhibition FLINT assay with quenched AMC peptide substrate Z-Gly-Pro-Arg-AMC (end point EP or kinetic KIN reads)
Assay type: biochemical
Conditions: kinetic reads at 5 min intervals over 30 min; read-out: Kallikrein (KIN) IC50
Summary of the method: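 Enzyme and compound were preincubated 30 min before adding 50 μM AMC substrate in pH 7.5 Tris/NaCl/CaCl2/BSA/CHAPS buffer. AMC release was read at 30 min endpoint or every 5 min.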

human plasma kallikrein, sequence (P03952 391-638 limits assumed): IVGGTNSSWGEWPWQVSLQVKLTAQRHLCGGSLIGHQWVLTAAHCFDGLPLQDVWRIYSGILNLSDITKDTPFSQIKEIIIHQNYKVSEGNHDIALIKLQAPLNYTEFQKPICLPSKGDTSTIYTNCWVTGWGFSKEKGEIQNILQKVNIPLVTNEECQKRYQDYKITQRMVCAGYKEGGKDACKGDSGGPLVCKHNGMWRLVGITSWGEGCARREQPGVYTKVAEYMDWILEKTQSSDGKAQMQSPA
human plasma kallikrein, sequence (P03952 20-390 partner limits assumed): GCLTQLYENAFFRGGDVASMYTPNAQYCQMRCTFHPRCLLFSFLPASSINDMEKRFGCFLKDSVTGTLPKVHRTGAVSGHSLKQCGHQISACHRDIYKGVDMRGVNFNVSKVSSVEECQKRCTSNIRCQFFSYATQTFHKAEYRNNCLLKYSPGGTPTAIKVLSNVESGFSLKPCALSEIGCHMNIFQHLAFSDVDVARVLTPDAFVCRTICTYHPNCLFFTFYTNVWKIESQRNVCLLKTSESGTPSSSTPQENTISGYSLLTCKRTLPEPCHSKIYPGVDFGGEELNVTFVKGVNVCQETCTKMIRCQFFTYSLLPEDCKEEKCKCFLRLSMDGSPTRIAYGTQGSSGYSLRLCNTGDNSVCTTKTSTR

**Q.** With `[O-][n+]1ccc(-c2cnn(C(Cc3ccc(Cl)cc3)c3ccc(-c4cc(Cl)ccc4-n4cnnn4)c[n+]3[O-])c2)cc1` (stereo not shown) [Example P172] as the molecule, how does the IC50 read?
**A.** Its IC50 is 16.2 nM.

**Q.** Which IC50 does the source give for `O=C(O)c1ccc(-c2cnn(C(c3ccc(-c4cc(Cl)ccc4-n4cnnn4)c[n+]3[O-])C(O)c3ccccc3)c2)cc1` (single isomer, unassigned) [Example P118] here?
**A.** The IC50 was 64.9 nM.

**Q.** For `O=c1ccccn1CC(c1ccc(-c2c(-n3cnnn3)ccc(Cl)c2F)c[n+]1[O-])n1cc(-c2cc[n+]([O-])c(C(F)F)c2)cn1` (single isomer, unassigned) [Example P373], which IC50 is on record?
**A.** The IC50 was 161 nM.

**Q.** For `O=C(O)C1CCN(C(=O)c2ccn(CC(c3ccc(-c4c(-n5cnnn5)ccc(Cl)c4F)c[n+]3[O-])n3cc(-c4ccncc4)cn3)n2)CC1` (stereo not shown) [Example P444], which IC50 is on record?
**A.** The IC50 was 1.8 nM.

**Q.** With `COC(=O)Nc1ccc(-c2cnn(C(CC3CCCCC3)c3ccc(-c4c(-n5cnnn5)ccc(Cl)c4F)c[n+]3[O-])c2)cc1` (stereo not shown) [Example P102] as the molecule, how does the IC50 read?
**A.** The IC50 was 72.2 nM.

**Q.** `[2H]C([2H])([2H])n1nccc1-c1cnn([C@@H](CCOC(F)F)c2ccc(-c3c(-n4cnnn4)ccc(Cl)c3F)c[n+]2[O-])c1` [Example P557] was tested. Which IC50 did it give?
**A.** Its IC50 is 210 nM.

**Q.** `CCC(c1ccc(-c2c(-n3cnnn3)ccc(Cl)c2F)c[n+]1[O-])n1cc(-c2ccncc2)cn1` (single isomer, unassigned) [Example P212] was tested. Which IC50 did it give?
**A.** The IC50 was 59.3 nM.

**Q.** `CCC(c1cc(OC)c(-c2cc(Cl)ccc2-n2cc(C(F)(F)F)nn2)c[n+]1[O-])n1cc(-c2ccc(C(N)=O)c(F)c2)cn1` (single isomer, unassigned) [Example P878] was tested. Which IC50 did it give?
**A.** Its IC50 is 2.7 nM.

**Q.** Which IC50 does the source give for `Nc1ccc(-c2cnn(C(Cn3cccn3)c3ccc(-c4c(-n5cnnn5)ccc(Cl)c4F)c[n+]3[O-])c2)c(F)n1` (single isomer, unassigned) [Example P314] here?
**A.** Its IC50 is 1.4 nM.

**Q.** Which IC50 does the source give for `Cn1ncc(F)c1-c1cnn(C(CC2CC2)c2ccc(-c3c(-n4cnnn4)ccc(Cl)c3F)c[n+]2[O-])c1` (stereo not shown) [Example P478] here?
**A.** The IC50 was 236 nM.

**Q.** `COC(=O)Nc1ccc(-c2cnn(C(Cc3ccc(Cl)cc3)c3ccc(-c4c(-n5cnnn5)ccc(Cl)c4F)c[n+]3[O-])c2)cc1` (stereo not shown) [Example P94] was tested. Which IC50 did it give?
**A.** Its IC50 is 18.3 nM.

**Q.** With `Cn1cc(C[C@@H](c2ccc(-c3c(-n4cnnn4)ccc(Cl)c3F)c[n+]2[O-])n2cc(-c3ccnc(C(F)(F)F)c3)cn2)nn1` [Example P737] as the molecule, how does the IC50 read?
**A.** The IC50 was 818 nM.

**Q.** How did the IC50 turn out when `Nc1ccc(-c2cnn(C(CCOC(F)F)c3ccc(-c4c(-n5cnnn5)ccc(Cl)c4F)c[n+]3[O-])c2)c(F)n1` (single isomer, unassigned) [Example P297] was run?
**A.** Its IC50 is 2.2 nM.

**Q.** Which IC50 does the source give for `Cc1cc(C(N)=O)sc1-c1cnn(C(CC2CC2)c2ccc(-c3c(-n4cnnn4)ccc(Cl)c3F)c[n+]2[O-])c1` (stereo not shown) [Example P960] here?
**A.** The IC50 was 52.9 nM.

**Q.** With `Cc1cc(C(CC2CC2)n2cc(-c3cnn(C)c(=O)c3)cn2)[n+]([O-])cc1-c1c(-n2cnnn2)ccc(Cl)c1F` (stereo not shown) [Example P130] as the molecule, how does the IC50 read?
**A.** The IC50 was 959 nM.

**Q.** Which IC50 does the source give for `CN(CC(c1ccc(-c2c(-n3cnnn3)ccc(Cl)c2F)c[n+]1[O-])n1cc(-c2ccnc(C(F)(F)F)c2)cn1)C(=O)C1CC1` (single isomer, unassigned) [Example P428] here?
**A.** The IC50 was 64.1 nM.

**Q.** With `NC(=O)c1ccc(-c2cnn(C(Cc3ccn(C(F)F)n3)c3ccc(-c4c(-n5cc(C(F)(F)F)nn5)ccc(Cl)c4F)c[n+]3[O-])c2)cc1F` (single isomer, unassigned) [Example P906] as the molecule, how does the IC50 read?
**A.** Its IC50 is 6.5 nM.

**Q.** Which IC50 does the source give for `NC(=O)c1ccc(-c2cnn(C(Cc3ncon3)c3ccc(-c4c(-n5cc(C(F)(F)F)nn5)ccc(Cl)c4F)c[n+]3[O-])c2)cc1F` (stereo not shown) [Example P915] here?
**A.** The IC50 was 20.2 nM.

**Q.** For `[O-][n+]1cc(F)c(-c2cnn(C(CC3CC3)c3ccc(-c4c(-n5cnnn5)ccc(Cl)c4F)c[n+]3[O-])c2)c(Cl)c1` (stereo not shown) [Example P518], which IC50 is on record?
**A.** The IC50 was 383 nM.

**Q.** For `Cn1ncc(F)c1-c1cnn([C@H](CCOC(F)F)c2ccc(-c3c(-n4cc(Cl)nn4)ccc(Cl)c3F)c[n+]2[O-])c1` [Example P680], which IC50 is on record?
**A.** The IC50 was 29 nM.

**Q.** How did the IC50 turn out when `Cn1nccc1-c1cnn(C(CCOC(F)F)c2ccc(-c3c(-n4cnnn4)ccc(Cl)c3F)c[n+]2[O-])c1` (stereo not shown) [Example P487] was run?
**A.** Its IC50 is 8.9 nM.

**Q.** For `Cn1ncc(-c2cnn(C(CCOC(F)F)c3ccc(-c4c(-n5cnnn5)ccc(Cl)c4F)c[n+]3[O-])c2)cc1=O` (stereo not shown) [Example P415], which IC50 is on record?
**A.** The IC50 was 184 nM.
